In patent US20250129028A1, “COMPOUNDS AND METHODS FOR YAP/TEAD MODULATION AND INDICATIONS THEREFOR” (Opna Bio SA, priority 2022, published 2025):

System: TEAD-dependent transcription
Test: TEAD-dependent transcription cell-based reporter assay (MSTO-211H+12XGTIIC luciferase)
Parameters: species or system human
Conditions: Homo sapiens; MSTO-211H+12XGTIIC cell line, luciferase signal normalized to cell viability, 24 hours compound incubation; read-out: MSTO-211H GMean IC50 (uM) Cell Assay Reporter Cell Variant: TEAD
Description: Determine Inhibitor Activity Against TEAD-Dependent Transcription in a Cell-Based Reporter Assay
The human mesothelioma cell line MSTO-211H was stably transfected with a pGL4.21 plasmid containing a synthetic promoter with 12 copies of the GTIIC TEAD response element that drives the expression of a luciferase reporter gene^1 using Lipofectamine transfection reagent (Thermo Fisher). Transfected cells were selected using puromycin and single cell clones expressing this construct (referred to as MSTO-211H+12XGTIIC) were generated by limiting dilution. MSTO-211H cells was characterized by genetic alterations in key components of the Hippo pathway^2, resulting in up-regulation of YAP/TEAD-mediated transcription. […] To evaluate TEAD inhibitors, the MSTO-211H+12XGTIIC cell line was seeded in a 96-well plate in 50 μL of culture media at 1×10^4 cells per well and incubated at 37° C. overnight. Serial dilutions of compounds (in total volume of 50 μL of culture media) were added to the cells and incubated at 37° C. for 24 hours. Each plate included cells treated with DMSO as high controls and cells treated with 20 μM of the reference compound K-975 (a known TEAD inhibitor)^3 as low controls. Cell viability was assayed by the addition of 25 μL of CellTiter-Fluor reagent (Promega) followed by a 30-minute incubation at 37° C. and quantification of the fluorescence signal (Ex400/Em505). Subsequently, luciferase expression was assayed by the addition of 25 μL of ONE-Glo reagent (Promega) followed by a 10-minute incubation at room temperature and quantification of the luminescence signal. The luminescence signal was normalized to the fluorescence signal to correct for any loss in cell viability over the 24-hour compound incubation period. The percentage of inhibition of normalized luminescence signal, indicative of compound-mediated inhibition of TEAD-dependent transcription, at individual compound concentrations relative to high and low controls was calculated. The data were analyzed by using nonlinear regression to generate IC50 values for individual compounds.

Row | Structure (SMILES) | IC50
1 | O=C(CC1CCS(=O)(=O)C1)N1CCc2ccc(Oc3ccc(C(F)(F)F)cc3)cc2C1 (centres unmarked) [P-0059, 2-(1,1-dioxidotetrahydro-thiophen-3-yl)-1-(7-(4-(trifluoromethyl)phen-oxy)-3,4-dihydroisoquin-olin-2(1H)-yl)ethan-1-one] | 0.001 to 10 µM
2 | CS(=O)(=O)CCC(=O)N1CCc2ccc(Oc3ccc(Cl)cc3)cc2C1 [P-0090, 1-(7-(4-chlorophenoxy)-3,4-dihydroisoquinolin-2(1H)-yl)-3-(methylsul-fonyl)propan-1-one] | 0.001 to 10 µM
3 | CS(=O)(=O)c1cc(C(=O)N2CCc3ccc(Oc4ccc(C(F)(F)F)cc4)cc3C2)ccn1 [P-0081, (2-(methylsulfonyl)pyr-idin-4-yl)(7-(4-(trifluoro-methyl)phenoxy)-3,4-dihydroisoquinolin-2(1H)-yl)methanone] | 0.001 to 10 µM
4 | CC(=O)N1CCC(C2c3cc(Oc4ccc(C(F)(F)F)cc4)ccc3CCN2C(=O)CCS(C)(=O)=O)C1 (centres unmarked) [P-0203, 1-(1-(1-acetylpyrrolidin-3-yl)-7-(4-(trifluorometh-yl)phenoxy)-3,4-dihydro-isoquinolin-2(1H)-yl)-3-(methylsulfonyl)-propan-1-one] | 0.001 to 10 µM
5 | NC(=O)c1ccc(C(=O)N2CCc3ccc(Oc4ccc(C(F)(F)F)cc4)cc3C2)cn1 [P-0127, 5-(7-(4-(trifluorometh-yl)phenoxy)-1,2,3,4-tetrahydroisoquinoline-2-carbonyl)picolinamide] | 0.001 to 10 µM
6 | N#CCCC(=O)N1CCc2c(cccc2-c2ccc(C(F)(F)F)cc2)C1 [P-0273, 4-oxo-4-(5-(4-(trifluoromethyl)phenyl)-3,4-dihydroisoquinolin-2(1H)-yl)butanenitrile] | 0.001 to 10 µM
7 | CS(=O)(=O)CCC(=O)N1CCc2ccc(Oc3ccc(C(F)(F)F)cc3)cc2C1CC1CN(c2ccccn2)C1 (centres unmarked) [P-0201, 3-(methylsulfonyl)-1-(1-((1-(pyridin-2-yl)azeti-din-3-yl)methyl)-7-(4-(trifluoromethyl)phen-oxy)-3,4-dihydroisoquin-olin-2(1H)-yl)propan-1-one] | 0.001 to 10 µM
8 | O=C(C1CCS(=O)(=O)CC1)N1CCc2ccc(Oc3ccc(C(F)(F)F)c(F)c3)cc2C1 [P-0143, (1,1-dioxidotetrahydro-2H-thiopyran-4-yl)(7-(3-fluoro-4-(trifluorometh-yl)phenoxy)-3,4-dihydro-isoquinolin-2(1H)-yl)-methanone] | 0.001 to 10 µM
9 | O=C(Cc1cnc[nH]1)N1CCc2c(cccc2Oc2ccc(C(F)(F)F)cc2)C1 [P-0242, 2-(1H-imidazol-5-yl)-1-(5-(4-(trifluoromethyl)-phenoxy)-3,4-dihydroiso-quinolin-2(1H)-yl)ethan-1-one] | 0.001 to 10 µM
10 | O=C(CNS(=O)(=O)C(F)(F)F)N1CCc2ccc(Oc3ccc(C(F)(F)F)c(F)c3)cc2C1 [P-0114, 1,1,1-trifluoro-N-(2-(7-(3-fluoro-4-(trifluoromethyl)phenoxy)-3,4-dihydroisoquinolin-2(1H)-yl)-2-oxoethyl)methanesulfonamide] | 0.001 to 10 µM
11 | Cc1nnc(CCC(=O)N2CCc3ccc(Oc4ccc(C(F)(F)F)cc4)cc3C2)s1 [P-0046, 3-(5-methyl-1,3,4-thiadi-azol-2-yl)-1-(7-(4-(trifluoromethyl)phen-oxy)-3,4-dihydroisoquin-olin-2(1H)-yl)propan-1-one] | 0.001 to 10 µM
12 | NS(=O)(=O)N1CC(C(=O)N2CCc3ccc(Oc4ccc(C(F)(F)F)cc4)cc3C2)C1 [P-0102, 3-(7-(4-(trifluoromethyl)-phenoxy)-1,2,3,4-tetra-hydroisoquinoline-2-carbonyl)azetidine-1-sulfonamide] | 0.001 to 10 µM
13 | CC(C)S(=O)(=O)N1CCc2c(cccc2Oc2ccc(C(F)(F)F)cc2)C1 [P-0235, 2-(isopropylsulfonyl)-5-(4-(trifluoromethyl)phen-oxy)-1,2,3,4-tetrahydro-isoquinoline] | 0.001 to 10 µM
14 | N#CCCC(=O)N1CCc2ccc(Oc3ccc(C(F)(F)F)cc3)cc2C1 [P-0040, 4-oxo-4-(7-(4-(trifluoro-methyl)phenoxy)-3,4-dihydroisoquinolin-2(1H)-yl)butanenitrile] | 0.001 to 10 µM
